Drawing on BindingDB's records for doi:10.1016/j.bmcl.2004.10.092 (F. Hoffmann-La Roche, 2005), this text covers Ki for two compounds.

Molecules are shown by their SMILES.

Common to all, as to assay: Serine Protease Inhibition Assay
One assay concerns the target T1, Coagulation factor VII (Homo sapiens, UniProt P08709).
T1 sequence (P08709 whole entry): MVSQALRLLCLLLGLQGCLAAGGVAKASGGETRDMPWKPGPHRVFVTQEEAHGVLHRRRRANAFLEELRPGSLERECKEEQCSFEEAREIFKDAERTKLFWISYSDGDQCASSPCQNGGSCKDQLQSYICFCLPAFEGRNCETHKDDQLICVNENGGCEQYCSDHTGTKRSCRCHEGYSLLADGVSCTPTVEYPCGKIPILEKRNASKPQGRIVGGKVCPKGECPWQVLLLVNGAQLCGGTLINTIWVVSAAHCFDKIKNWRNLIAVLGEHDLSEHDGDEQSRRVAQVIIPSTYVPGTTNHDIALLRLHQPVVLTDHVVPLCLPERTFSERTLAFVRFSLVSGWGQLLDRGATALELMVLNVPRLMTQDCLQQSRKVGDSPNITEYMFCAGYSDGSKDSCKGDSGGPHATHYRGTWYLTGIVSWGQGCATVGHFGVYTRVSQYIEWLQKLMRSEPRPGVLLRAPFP
The note with it: pH 7.8; 22 °C. The procedure:
(§1) The enzyme reactions were initiated by the addition of substrate, and the color developed from the release of p-nitroanilide from each chromogenic substrate was monitored continuously for 5 min at 405 nm on a microtiter plate reader. […] The apparent Ki values were then calculated according to the Cheng-Prusoff equation: Ki = IC50/1 + [S]/Km.

The target of the next assay is Coagulation factor X (Homo sapiens, UniProt P00742). The procedure: as §1
Chain of Coagulation factor X (P00742 41-179 limits assumed): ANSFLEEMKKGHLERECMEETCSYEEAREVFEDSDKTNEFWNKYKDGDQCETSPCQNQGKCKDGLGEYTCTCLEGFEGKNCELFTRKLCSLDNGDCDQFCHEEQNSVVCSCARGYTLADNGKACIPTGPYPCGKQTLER
Chain of Coagulation factor X (P00742 235-488 limits assumed): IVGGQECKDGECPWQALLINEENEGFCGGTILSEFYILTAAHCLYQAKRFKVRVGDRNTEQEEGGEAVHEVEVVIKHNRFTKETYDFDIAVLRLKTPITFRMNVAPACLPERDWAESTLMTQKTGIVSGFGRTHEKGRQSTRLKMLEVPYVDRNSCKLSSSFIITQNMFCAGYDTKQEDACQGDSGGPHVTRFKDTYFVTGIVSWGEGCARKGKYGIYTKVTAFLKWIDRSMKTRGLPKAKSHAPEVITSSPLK
A further assay has as its target Prothrombin (Homo sapiens, UniProt P00734). Here is the method: as §1
For the next assay, the target named is T2, Serine protease 1 (Bos taurus, UniProt P00760).
T2 sequence (P00760 whole entry): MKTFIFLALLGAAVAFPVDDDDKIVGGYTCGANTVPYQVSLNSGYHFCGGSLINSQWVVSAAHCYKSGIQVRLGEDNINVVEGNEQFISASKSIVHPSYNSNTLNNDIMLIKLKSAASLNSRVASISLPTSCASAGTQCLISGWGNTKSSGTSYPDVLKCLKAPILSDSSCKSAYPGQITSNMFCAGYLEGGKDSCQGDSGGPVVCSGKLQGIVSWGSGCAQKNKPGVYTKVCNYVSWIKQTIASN
The procedure: as §1

As for `COc1cc(C(Nc2ccc(C(=N)N)cc2)C(=O)N[C@H](C(=O)O)c2ccccc2)c(C(=O)Cc2ccccc2)cc1OCc1ccccc1` (stereo partly drawn) [(2S)-2-{2-[4-(benzyloxy)-5-methoxy-2-(2-phenylacetyl)phenyl]-2-[(4-carbamimidoylphenyl)amino]acetamido}-2-phenylacetic acid], the Ki at Coagulation factor VII came to 7 nM; on Coagulation factor X, 19000 nM; on Prothrombin it was 6400 nM; on Serine protease 1 it was 80 nM.

Turning to `COc1cc(C(Nc2ccc(C(=N)N)cc2)C(=O)N[C@H](C(=O)O)c2ccccc2)c(S(=O)(=O)c2ccccc2)cc1OCc1ccccc1` (some centres not stated) [phenylglycine amide compound 10], the figures for the Ki on Coagulation factor X, on Prothrombin and at Serine protease 1 were 12400 nM, 540 nM and 50 nM, respectively.
